Test results as given in ChEMBL document CHEMBL3137667, “[Drug-induced liver injury; fourteenth updated edition of the bibliographic database of liver injuries and related drugs]” (Gastroenterol Clin Biol, 2004).

How the values were obtained:
[1] = Highest frequency of moderate liver toxicity observed during clinical trials, expressed as a percentage. [column '% BIOL' in source]; settings: human
[2] = Highest frequency of acute liver toxicity observed during clinical trials, expressed as a percentage. [column '% AIGUE' in source]; settings: human
[3] = Presence of at least one case with successful reintroduction. [column 'REINT' in source]; settings: human
[4] = Comments (NB not yet translated). [column 'COMMENTAIRES' in source]; settings: human
[5] = Times to onset, minimal and maximal, observed in the indexed observations. [column 'DELAI' in source]; settings: human
[6] = human, serum
[7] = human, serum; remark: listed apart in the source
[8] = human
[9] = human; remark: listed apart in the source
[10] = human; remark: listed apart in the source
[11] = human, serum, 4383 h
[12] = human; remark: listed apart in the source
[13] = human; remark: listed apart in the source
[14] = human; remark: listed apart in the source
[15] = human; remark: listed apart in the source
[16] = human; remark: listed apart in the source
[17] = human; remark: listed apart in the source
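Wherever Hepatotoxicity (association with vascular disease) is given: count of indexed literature references reporting vascular liver injury in humans, e.g. peliosis hepatitis, hepatic veno-occlusive disease or Budd-Chiari syndrome.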
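Wherever Hepatotoxicity (benign tumour) is given: value is a count of indexed literature references citing a benign tumour confirmed by histopathology.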
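Wherever Hepatotoxicity (choleostasis) is given: human cholestatic liver injury, shown by histopathology or by peak ALT or AST elevation over alkaline phosphatase ratio below 2, value counts indexed literature reports.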
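Wherever Hepatotoxicity (chronic liver disease) is given: chronic liver injury confirmed by histopathology or persistently raised serum aminotransferase activity beyond 6 months, value given as the count of indexed literature references.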
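Wherever Hepatotoxicity (cirrhosis) is given: value is a count of indexed literature references reporting cirrhosis confirmed by histopathology.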
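Wherever Hepatotoxicity (cytolytic) is given: human cytolytic liver injury, shown by histopathology or by a ratio above 5 of peak ALT or AST elevation to alkaline phosphatase elevation, value counts indexed references.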
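Wherever Hepatotoxicity (granulomatous hepatitis) is given: value is a count of indexed literature references reporting granulomatous liver disease confirmed by histopathology.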
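Wherever Hepatotoxicity (malignant tumour) is given: malignant tumour confirmed by histopathology, value gives the count of indexed literature references reporting it.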
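Wherever Hepatotoxicity (severe hepatitis) is given: human clinical data: severe hepatitis, meaning potentially life-threatening liver failure or clinically observed cases, the value counts how many indexed literature references report it.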
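Wherever Hepatotoxicity (steatosis) is given: steatosis confirmed by histopathology, value is the count of indexed references.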

Compound | Hepatotoxicity (moderate) [1] [%] | Hepatotoxicity (acute) [2] [%] | Hepatotoxicity (successful reintroduction) [3] | Hepatotoxicity (comment) [4] | Hepatotoxicity (time to onset) [5] | Hepatotoxicity (moderate) [6] | Hepatotoxicity (acute) [7] | Hepatotoxicity (cytolytic) [8] | Hepatotoxicity (choleostasis) [9] | Hepatotoxicity (severe hepatitis) [10] | Hepatotoxicity (chronic liver disease) [11] | Hepatotoxicity (cirrhosis) [12] | Hepatotoxicity (granulomatous hepatitis) [13] | Hepatotoxicity (association with vascular disease) [14] | Hepatotoxicity (steatosis) [15] | Hepatotoxicity (malignant tumour) [16] | Hepatotoxicity (benign tumour) [17] | also measured
CN1Cc2c(N)cccc2C(c2ccccc2)C1 (stereo unspecified) [NOMIFENSINE] | 0 | 0 | yes | RC/MIANSERINE | 3 days - 3 months | 6 | 11 | 8 | 6 | 0 | 0 | 0 | 5 | 0 | 0 | 0 | 0 | 
CCN1CCN(C(=O)N[C@@H](C(=O)N[C@@H]2C(=O)N3[C@@H]2SC(C)(C)[C@@H]3C(=O)O)c2ccccc2)C(=O)C1=O [PIPERACILLIN] | 25.6 | 0.2 | yes | CHOLANGITE | 2 weeks | 14 | 4 | 1 | 3 | 0 | 0 | 0 | 0 | 0 | 0 | 0 | 0 | 
CC[C@H](C)C(=O)O[C@H]1C[C@H](O)C=C2C=C[C@H](C)[C@H](CC[C@@H](O)C[C@@H](O)CC(=O)O)[C@H]21 [PRAVASTATIN] |  |  | yes | AC_ANTI-N/-MF | 1 week - 20 weeks | 50 | 7 | 3 | 3 |  | 0 | 0 | 0 | 0 | 1 | 0 | 0 | Hepatotoxicity (moderate) ([1]; Liver): 22.5%; Hepatotoxicity (acute) ([2]; Liver): 1.1%; Hepatotoxicity (severe hepatitis) ([10]; Liver): 0
Cc1ncc(CSSCc2cnc(C)c(O)c2CO)c(CO)c1O [PYRITINOL] | 1.4 | 0 | yes | CHOLESTASE_PROLONGEE | 1 day - 2 months | 1 | 6 | 1 | 4 | 1 | 0 | 0 | 0 | 0 | 1 | 0 | 0 | 
CCN(CC)CCCC(C)Nc1c2ccc(Cl)cc2nc2ccc(OC)cc12 (stereo unspecified) [QUINACRINE] | 0 | 0.1 | yes | CHOLANGITE | 1 week - 4 months | 2 | 4 | 2 | 1 | 1 | 0 | 0 | 0 | 0 | 0 | 0 | 0 | 
CN[C@H]1CC[C@@H](c2ccc(Cl)c(Cl)c2)c2ccccc21 [SERTRALINE] |  |  | yes | CHOLANGIOLITE | 3 days - 5 months | 4 | 8 |  |  |  | 0 | 0 |  | 0 | 0 | 0 | 0 | Hepatotoxicity (moderate) ([1]; Liver): 0.8%; Hepatotoxicity (acute) ([2]; Liver): 0%; Hepatotoxicity (cytolytic) ([8]; Liver): 5; Hepatotoxicity (choleostasis) ([9]; Liver): 4; Hepatotoxicity (severe hepatitis) ([10]; Liver): 1; Hepatotoxicity (granulomatous hepatitis) ([13]; Liver): 0
CC(C(=O)O)c1ccc(C(=O)c2ccccc2)s1 (stereo unspecified) [TIAPROFENIC ACID] | 3.8 | 0 | yes | RC/DICLOFENAC | 3 weeks - 2 months | 1 | 3 | 2 | 2 | 0 | 0 | 0 | 0 | 0 | 0 | 0 | 0 | 
CC1(C)S[C@@H]2[C@H](NC(=O)[C@H](C(=O)O)c3ccsc3)C(=O)N2[C@H]1C(=O)O [TICARCILLIN] | 5 | 0 | yes | RC/CARBENICILLINE | 2 days - 1 week | 7 | 0 | 0 | 0 | 0 | 0 | 0 | 0 | 0 | 0 | 0 | 0 | 
Cc1ccc(S(=O)(=O)NC(=O)NN2CCCCCC2)cc1 [TOLAZAMIDE] | 0 | 0 | yes | CHOLESTASE_PROLONGEE RC/CHLORPROPAMIDE | 3 weeks - 18 months | 0 | 5 | 5 | 4 | 1 | 0 | 0 | 0 | 0 | 0 | 0 | 0 | 
CC(=O)CC(c1ccccc1)c1c(O)c2ccccc2oc1=O (stereo unspecified) [WARFARIN] | 0 | 0 | yes | RC/PHENPROCOUMON RUPTURE_HEPATIQUE #S.REYE | 1 week - 2.5 years | 2 | 6 | 0 | 5 | 0 | 0 | 0 | 0 | 0 | 0 | 0 | 0 | 
Cc1cn([C@H]2C[C@H](N=[N+]=[N-])[C@@H](CO)O2)c(=O)[nH]c1=O [ZIDOVUDINE] | 44 | 12.5 | yes | I/INTERFERON/PARACETAMOL REACTIVATION_HVB | 1 week - 8 years | 26 | 25 | 22 | 3 | 13 | 0 | 0 | 0 | 0 | 17 | 0 | 0 | 
ALTEPLASE | 21.2 | 0 | yes | AGGRAVATION_MVO | 3 days - 4 days | 4 | 1 | 1 | 0 | 0 | 0 | 0 | 0 | 0 | 0 | 0 | 0 | 
STREPTOKINASE | 75 | 0 | yes | RUPTURE_HEPATIQUE | 1 day - 1 week | 12 | 9 | 5 | 3 | 0 | 0 | 0 | 0 | 0 | 0 | 0 | 0 | 
